± gives the standard deviation of the averaged measurements.
Columns and labels:
DOXORUBICIN [1] = compound: T1, COc1cccc2c1C(=O)c1c(O)c3c(c(O)c1C2=O)C[C@@](O)(C(=O)CO)C[C@@H]3O[C@H]1C[C@H](N)[C@H](O)[C@H](C)O1 [DOXORUBICIN]; experiment: surviving fraction relative to DMSO-only wells; higher = less growth inhibition; conditions: exposure time: 5 days
Summary of the method: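 Surviving fraction was calculated by normalising CellTiter-Glo luminescence to the median of DMSO-only wells. Tumour cell lines in log phase were seeded in 384-well plates at 250–500 cells per well, and 24 hours later were exposed continuously for five days to inhibitors at 0.5, 1, 5, 10, 50, 100, 500 and 1000 nM.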

DOXORUBICIN [2] = compound: T1, DOXORUBICIN; experiment: area under dose-response curve of surviving fraction (unscaled, Aref=0) (surviving fraction x log10(nM)); higher = more resistant; conditions: exposure time: 5 days; dose range 0.5-1000 nM
Summary of the method: (§1)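 Three screens per tumour cell line were run in 384-well plates at eight inhibitor concentrations from 0.5 to 1000 nM over five days. Surviving fractions, from CellTiter-Glo luminescence normalised to DMSO-only wells, were fitted with 3-parameter logistic curves in the drc R package. The reported area under the curve is the unscaled activity area. It spans log10 dose, and Aref is 0.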

FLUOROURACIL = compound: O=c1[nH]cc(F)c(=O)[nH]1 [FLUOROURACIL]; experiment: as above; conditions: exposure time: 5 days; dose range 0.5-1000 nM
Summary of the method: as §1

[3] = compound: CCN(CC)CCCCNc1ncc2cc(-c3cc(OC)cc(OC)c3)c(NC(=O)NC(C)(C)C)nc2n1; experiment: as above; conditions: exposure time: 5 days; dose range 0.5-1000 nM
Summary of the method: as §1

LAPATINIB = compound: CS(=O)(=O)CCNCc1ccc(-c2ccc3ncnc(Nc4ccc(OCc5cccc(F)c5)c(Cl)c4)c3c2)o1 [LAPATINIB]; experiment: as above; conditions: exposure time: 5 days; dose range 0.5-1000 nM
Summary of the method: as §1

ABT-737 = compound: CN(C)CC[C@H](CSc1ccccc1)Nc1ccc(S(=O)(=O)NC(=O)c2ccc(N3CCN(Cc4ccccc4-c4ccc(Cl)cc4)CC3)cc2)cc1[N+](=O)[O-] [ABT-737]; experiment: as above; conditions: exposure time: 5 days; dose range 0.5-1000 nM
Summary of the method: as §1

RESVERATROL = compound: Oc1ccc(/C=C/c2cc(O)cc(O)c2)cc1 [RESVERATROL]; experiment: as above; conditions: exposure time: 5 days; dose range 0.5-1000 nM
Summary of the method: as §1

FLAVOPIRIDOL = compound: CN1CC[C@H](c2c(O)cc(O)c3c(=O)cc(-c4ccccc4Cl)oc23)[C@H](O)C1 [FLAVOPIRIDOL]; experiment: as above; conditions: exposure time: 5 days; dose range 0.5-1000 nM
Summary of the method: as §1

DECITABINE = compound: Nc1ncn([C@H]2C[C@H](O)[C@@H](CO)O2)c(=O)n1 [DECITABINE]; experiment: as above; conditions: exposure time: 5 days; dose range 0.5-1000 nM
Summary of the method: as §1

SALINOMYCIN = compound: CC[C@@H](C(=O)[C@@H](C)[C@@H](O)[C@H](C)[C@@H]1O[C@@H]([C@@H](CC)C(=O)O)CC[C@@H]1C)[C@H]1O[C@]2(C=C[C@@H](O)[C@]3(CC[C@@](C)([C@H]4CC[C@](O)(CC)[C@H](C)O4)O3)O2)[C@H](C)C[C@@H]1C [SALINOMYCIN]; experiment: as above; conditions: exposure time: 5 days; dose range 0.5-1000 nM
Summary of the method: as §1

2-METHOXYESTRADIOL = compound: COc1cc2c(cc1O)CC[C@@H]1[C@@H]2CC[C@]2(C)[C@@H](O)CC[C@@H]12 [2-METHOXYESTRADIOL]; experiment: as above; conditions: exposure time: 5 days; dose range 0.5-1000 nM
Summary of the method: as §1

VISMODEGIB = compound: CS(=O)(=O)c1ccc(C(=O)Nc2ccc(Cl)c(-c3ccccn3)c2)c(Cl)c1 [VISMODEGIB]; experiment: as above; conditions: exposure time: 5 days; dose range 0.5-1000 nM
Summary of the method: as §1

17-AAG = compound: C=CCNC1=C2C[C@@H](C)C[C@H](OC)[C@H](O)[C@@H](C)/C=C(\C)[C@H](OC(N)=O)[C@@H](OC)/C=C\C=C(/C)C(=O)NC(=CC1=O)C2=O [17-AAG]; experiment: as above; conditions: exposure time: 5 days; dose range 0.5-1000 nM
Summary of the method: as §1

| Test System | surviving fraction (DOXORUBICIN [1]; 0.5 nM) | surviving fraction (DOXORUBICIN [1]; 1 nM) | surviving fraction (DOXORUBICIN [1]; 5 nM) | surviving fraction (DOXORUBICIN [1]; 10 nM) | surviving fraction (DOXORUBICIN [1]; 50 nM) | surviving fraction (DOXORUBICIN [1]; 100 nM) | surviving fraction (DOXORUBICIN [1]; 500 nM) | surviving fraction (DOXORUBICIN [1]; 1000 nM) | area under dose-response curve (DOXORUBICIN [2]) | area under dose-response curve (FLUOROURACIL) | area under dose-response curve [3] | area under dose-response curve (LAPATINIB) | area under dose-response curve (ABT-737) | area under dose-response curve (RESVERATROL) | area under dose-response curve (FLAVOPIRIDOL) | area under dose-response curve (DECITABINE) | area under dose-response curve (SALINOMYCIN) | area under dose-response curve (2-METHOXYESTRADIOL) | area under dose-response curve (VISMODEGIB) | area under dose-response curve (17-AAG) |
| --- | --- | --- | --- | --- | --- | --- | --- | --- | --- | --- | --- | --- | --- | --- | --- | --- | --- | --- | --- | --- |
| A549 LUNG | 0.96 ± 0.032 | 0.964 ± 0.039 | 0.963 ± 0.046 | 1.01 ± 0.032 | 0.565 ± 0.031 | 0.496 ± 0.017 | 0.189 ± 0.015 | 0.083 ± 0.001 | 2.25 | 3.27 | 3.22 | 3.47 | 3.54 | 3.51 | 2.34 | 3.29 | 3.11 | 3.25 | 3.34 | 1.64 |
| CAL51 BREAST | 0.903 ± 0.044 | 0.919 ± 0.026 | 0.872 ± 0.029 | 0.62 ± 0.055 | 0.112 ± 0.011 | 0.0608 ± 0.0036 | 0.0247 ± 0.00076 | 0.0238 ± 0.0015 | 1.48 | 3.05 | 2.86 | 3.37 | 3.4 | 3.35 | 1.92 | 2.92 | 3.01 | 2.99 | 3.09 | 1.92 |
| CAL72 BONE | 1.05 ± 0.041 | 0.743 ± 0.018 | 1.01 ± 0.033 | 0.826 ± 0.045 | 0.298 ± 0.042 | 0.299 ± 0.018 | 0.0937 ± 0.0021 | 0.114 ± 0.0055 | 1.9 | 3.25 | 2.46 | 3.63 | 3.52 | 3.49 | 2.13 | 3.26 | 3.12 | 3.18 | 3.17 | 2.63 |
| CAL120 BREAST | 0.955 ± 0.015 | 0.916 ± 0.019 | 0.902 ± 0.024 | 0.822 ± 0.065 | 0.401 ± 0.038 | 0.285 ± 0.019 | 0.0702 ± 0.0011 | 0.0468 ± 0.0028 | 1.87 | 3.16 | 2.73 | 3.34 | 3.33 | 3.3 | 2.14 | 3.03 | 2.03 | 3 | 3.26 | 1.76 |
| CASKI CERVIX | 0.684 ± 0.14 | 0.85 ± 0.04 | 0.221 ± 0.044 | 0.292 ± 0.049 | 0.035 ± 0.005 | 0.143 ± 0.032 | 0.0187 ± 0.0021 | 0.0253 ± 0.0015 | 0.836 | 3.05 | 3.09 | 2.48 | 3.24 | 3.22 | 1.76 | 2.1 | 2.37 | 3.06 | 3.06 | 1.32 |
| COLO320DM LARGE INTESTINE | 1.07 ± 0.064 | 1.13 ± 0.02 | 1.13 ± 0.12 | 1.09 ± 0.035 | 1.05 ± 0.091 | 0.787 ± 0.14 | 0.446 ± 0.014 | 0.388 ± 0.02 | 3.07 | 2.87 | 3.53 | 3.66 | 3.69 | 3.54 | 2.06 | 3.27 | 2.89 | 2.88 | 3.45 | 2.98 |
| DU4475 BREAST | 0.818 ± 0.31 | 1.23 ± 0.41 | 0.233 ± 0.071 | 0.139 ± 0.054 | 0.029 ± 0.0066 | 0.0287 ± 0.0051 | 0.025 ± 0.0046 | 0.0273 ± 0.0051 | 0.979 | 3.34 | 2.52 | 3.33 | 2.54 | 3.25 | 1.69 | 1.99 | 2.43 | 2.52 | 3.21 | 1.26 |
| HCC1806 BREAST | 0.963 ± 0.033 | 1.01 ± 0.076 | 0.75 ± 0.068 | 0.369 ± 0.039 | 0.102 ± 0.013 | 0.0793 ± 0.005 | 0.0243 ± 0.0011 | 0.0257 ± 0.0011 | 1.3 | 3.09 | 3.58 | 3.15 | 3.72 | 3.7 | 2.06 | 1.27 | 2.77 | 3.46 | 3.23 | 0.894 |
| HCC1954 BREAST | 1.03 ± 0.19 | 0.955 ± 0.18 | 0.829 ± 0.015 | 0.772 ± 0.058 | 0.465 ± 0.067 | 0.169 ± 0.0085 | 0.0355 ± 0.00071 | 0.0328 ± 0.00035 | 1.78 | 2.96 | 3.28 | 2.76 | 3.03 | 3.7 | 1.99 | 4.03 | 2.46 | 2.85 | 2.26 | 0.46 |
| HELA CERVIX | 0.998 ± 0.055 | 1.03 ± 0.022 | 0.897 ± 0.029 | 0.595 ± 0.031 | 0.316 ± 0.007 | 0.309 ± 0.022 | 0.0252 ± 0.00076 | 0.0252 ± 0.0013 | 1.69 | 3.55 | 3.33 | 3.7 | 3.64 | 3.64 | 2.54 | 3.41 | 3.17 | 3.11 | 3.49 | 2.37 |
| HOSMNG BONE | 0.976 ± 0.05 | 1.02 ± 0.032 | 0.983 ± 0.083 | 0.98 ± 0.07 | 0.549 ± 0.051 | 0.506 ± 0.025 | 0.165 ± 0.056 | 0.153 ± 0.037 | 2.25 | 3.41 | 3.33 | 3.02 | 3.05 | 2.77 | 2.35 | 3.51 | 3.21 | 3.07 | 3.19 | 2.42 |
| HSSYII SYNOVIAL | 0.901 ± 0.025 | 0.759 ± 0.018 | 0.381 ± 0.02 | 0.157 ± 0.015 | 0.0632 ± 0.0042 | 0.0312 ± 0.002 | 0.0185 ± 0.0022 | 0.0217 ± 0.0019 | 0.844 | 3.07 | 2.02 | 3.2 | 2.95 | 3.27 | 2.06 | 2.67 | 2.22 | 2.57 | 2.83 | 2.27 |

Reference: the supplement of paper PMC6045584
